In patent publication US20240269105A1, “USE OF SGLT-2 INHIBITORS FOR THE PREVENTION AND/OR TREATMENT OF HYPERTENSION IN NON-HUMAN MAMMALS” (BOEHRINGER INGELHEIM VETMEDICA GMBH, priority 2021, published 2024):

Key:
[1] = test system: human patients suffering from diabetes mellitus type II; conditions: baseline to week 12; empagliflozin 10 mg and 25 mg groups vs placebo; N=825; 'up to'; cited from earlier work
[2] = test system: cats previously diagnosed with high systolic blood pressure; assay: Clinical field study (Cats): systolic blood pressure; assay type: in vivo, cat; conditions: cats (n=5-10), 4 weeks of treatment, open label
Procedure: (§1) In a clinical field study, the effect of velagliflozin on systolic blood pressure administered to cats (n=5-10) previously diagnosed with high systolic blood pressure, is evaluated over a period of 1 month. Systolic blood pressure measurements are performed in accordance with the ACVIM consensus statement (Ref. 3). Systolic blood pressure is measured before treatment start and during weekly consecutive visits (4 weeks of treatment). The study is an open label study (unmasked). The data of this field trial confirm an average reduction of systolic blood pressure of about 5-10 mmHg.

[3] = test system: dogs previously diagnosed with high systolic blood pressure; assay: Clinical field study (Dogs): systolic blood pressure; assay type: in vivo, dog; conditions: dogs (n=5-10), 4 weeks of treatment, open label
Procedure: as §1, with “dogs” for “cats”

SMILES	placebo-subtracted mean difference of mean 24-hour systolic BP [1]	average reduction of systolic blood pressure [2]	average reduction of systolic blood pressure [3]
OC[C@H]1O[C@@H](c2ccc(Cl)c(Cc3ccc(O[C@H]4CCOC4)cc3)c2)[C@H](O)[C@@H](O)[C@@H]1O [empagliflozin, Empagliflozin]	up to −4.16 mmHg	–	–
N#Cc1ccc([C@@H]2O[C@H](CO)[C@@H](O)[C@H](O)[C@H]2O)cc1Cc1ccc(C2CC2)cc1 [velagliflozin, Velagliflozin]	–	5-10 mmHg	5-10 mmHg
